According to US7928085B2, “P-toluene sulfonic acid salt of 5-amino-3-(2′-O-acetyl-3′-deoxy-β-D-ribofuranosyl)-3H-thiazole[4,5-d]pyrimidine-2-one and methods for preparation” (Anadys Pharmaceuticals, Inc., priority 2006, dated 2011):
Structures can show the parent of a compound that is named as a salt.

Assay: hygroscopicity of the solid form
Assay type: physicochemical
Details: solid substance, amorphous free base versus crystalline p-toluene sulfonic acid salt

hygroscopicity | hygroscopicity (listed as p-toluene sulfonic salt) | SMILES
hydroscopic | – | CC(=O)O[C@@H]1C[C@@H](CO)O[C@H]1n1c(=O)sc2cnc(N)nc21 [Formula 5, 5-amino-3-(2′-O-acetyl-3′-deoxy-beta-D-ribofuranosyl)-3H-thiazolo[4,5-d]pyrimidin-2-one]
– | only slightly hygroscopic | CC(=O)O[C@@H]1C[C@@H](CO)O[C@H]1n1c(=O)sc2cnc(N)nc21 [Formula (1), p-toluene sulfonic acid salt of 5-amino-3-(2′-O-acetyl-3′-deoxy-beta-D-ribofuranosyl)-3H-thiazolo[4,5-d]pyrimidin-2-one]
